The data set in a line: in vitro. Conditions: human, hela cells, % viability.

Each structure is given as a SMILES string.

A word on the viability: it is a read-out of living cells in per cent, often relative to untreated cells.

In the case of `CCOc1c(CNCc2ccccn2)cccc1OC` [CBK268104C], the viability at 28.5 h, 10 µM worked out at 96.9%.

Consider `CCOC(=O)c1ccc(N2CC(C(=O)O)CC2=O)cc1` (stereo not drawn) [CBK268106], for which the viability at 28.5 h, 10 µM worked out at 115%.

In the case of `Cc1scc(C(=O)NCc2ccccn2)c1-c1ccccc1` [CBK268107], the viability at 28.5 h, 10 µM came out at 89%.

For `Cc1cc(C(=O)NCc2ccc(C(=O)O)cc2)no1` [CBK268108], the viability at 28.5 h, 10 µM is 98.3%.

As for `Cc1ccc(OC(C)C(=O)NCCCN2CCOCC2)cc1C` (stereo not drawn) [CBK268109], the viability at 28.5 h, 10 µM is 94.3%.

For `Cc1noc(C)c1C(=O)Nc1sc2c(c1C(=O)NCc1ccco1)CCCCCC2` [CBK268112], the viability at 28.5 h, 10 µM is 99.3%.

`Cc1cc(OCC(=O)Nc2nn(Cc3ccccc3Cl)cc2Cl)ccc1[N+](=O)[O-]` [CBK268113]: the viability at 28.5 h, 10 µM came to 100%.

With `Cc1cc(OCC(=O)Nc2ccc(S(=O)(=O)N3CCOCC3)cc2)ccc1[N+](=O)[O-]` [CBK268114], the viability at 28.5 h, 10 µM was 113%.

Take `CN1CCN(NC(=O)COc2ccc(-c3ccccc3)cc2)CC1` [CBK268117]: the viability at 28.5 h, 10 µM was found to be 89.8%.

For the molecule `CCc1noc(C)c1C(=O)NCCN(C)C` [CBK268118], the viability at 28.5 h, 10 µM was determined as 97.5%.

In the case of `COC(=O)c1c(-c2ccncc2)csc1NC(=O)Cc1ccc([N+](=O)[O-])cc1` [CBK268119], the viability at 28.5 h, 10 µM came to 90.1%.

As to `O=C(O)C1CC=CCC1C(=O)Nc1ccc(S(=O)(=O)N2CCc3ccccc32)cc1` (stereo not drawn) [CBK268122], the viability at 28.5 h, 10 µM turned out to be 108%.

For the molecule `O=C(Nc1cccc(Cn2cccn2)c1)c1csc2ccccc12` [CBK268123], the viability at 28.5 h, 10 µM stood at 93.2%.

With `CN1CCN(NC(=O)COc2cccc(C(F)(F)F)c2)CC1` [CBK268124], the viability at 28.5 h, 10 µM came out at 90.2%.

For `Cc1cc(C(=O)N2CCN(Cc3ccc(F)cc3Cl)CC2)no1` [CBK268126], the viability at 28.5 h, 10 µM is 100%.

In the case of `CCc1noc(C)c1C(=O)Nc1cccc(Cn2cc(Cl)cn2)c1` [CBK268127], the viability at 28.5 h, 10 µM was determined as 97.6%.

On to `NS(=O)(=O)c1ccc(CCNC(=O)c2ccc3c(c2)OCCO3)cc1` [CBK268128], for which the viability at 28.5 h, 10 µM worked out at 104%.

`NS(=O)(=O)c1ccc(NC(=S)N2CCN(CCc3ccccc3)CC2)cc1` [CBK268133]: the viability at 28.5 h, 10 µM was 97.6%.

Regarding `Cc1cc(C(=O)Nc2sc(C)c(C)c2C(=O)NCc2cccnc2)no1` [CBK268134], the viability at 28.5 h, 10 µM turned out to be 100%.

Regarding `CCC(Oc1cccc(Cl)c1)C(=O)NN1CCN(C)CC1` (stereo not drawn) [CBK268135], the viability at 28.5 h, 10 µM came to 116%.

As for `CC(Oc1ccc(Br)cc1Cl)C(=O)NCCCN1CCCC1=O` (stereo not drawn) [CBK268138], the viability at 28.5 h, 10 µM was 98.7%.

Take `Cc1cc(NS(=O)(=O)c2ccc(NC(=O)Nc3ccc4c(c3)OCO4)cc2)no1` [CBK268139]: the viability at 28.5 h, 10 µM worked out at 104%.

In the case of `Cc1ccc(-c2csc(NC(=O)c3c(C)noc3C)c2C(=O)NC2CC2)cc1` [CBK268141], the viability at 28.5 h, 10 µM was 95.1%.

On to `CN1CCN(NC(=O)CSc2ccccc2)CC1` [CBK268142], for which the viability at 28.5 h, 10 µM was found to be 107%.

Turning to `COc1ccccc1CCNC(=O)c1cnccn1` [CBK268147], the viability at 28.5 h, 10 µM was 59.7%.

On to `CCOc1ccc(CC(=O)NN2CCOCC2)cc1OCC` [CBK268150], for which the viability at 28.5 h, 10 µM stood at 102%.

Regarding `COc1cc(NS(=O)(=O)c2ccc(NC(=O)c3c(C)noc3C)cc2)nc(OC)n1` [CBK268151], the viability at 28.5 h, 10 µM was found to be 103%.

Consider `O=C(Nc1nn(Cc2c(F)cccc2Cl)cc1Cl)c1cccnc1` [CBK268154], for which the viability at 28.5 h, 10 µM was found to be 79.1%.

For `NS(=O)(=O)c1ccc(CCNC(=O)c2cccnc2)cc1` [CBK268158], the viability at 28.5 h, 10 µM is 102%.

Take `Cc1ccc(OCC(=O)Nc2sc(C)c(C)c2C#N)c([N+](=O)[O-])c1` [CBK268162]: the viability at 28.5 h, 10 µM is 101%.

As to `Cc1c(C(N)=O)sc(NC(=O)c2cccnc2)c1C#N` [CBK268163], the viability at 28.5 h, 10 µM turned out to be 105%.

As to `Cc1sc(NC(=O)COc2ccccc2)c(C(N)=O)c1-c1ccccc1` [CBK268164], the viability at 28.5 h, 10 µM was determined as 97.8%.

On to `O=C(Nc1sccc1C(=O)N1CCOCC1)C(Sc1ccccc1)c1ccccc1` (stereo not drawn) [CBK268165], for which the viability at 28.5 h, 10 µM came to 95%.

As to `COc1cc(OC)c(NC(=O)c2c(-c3ccccc3)noc2C)cc1Cl` [CBK268167], the viability at 28.5 h, 10 µM stood at 101%.

Turning to `COc1ccc(Cl)cc1NC(=O)NCCN1CCCCC1` [CBK268169], the viability at 28.5 h, 10 µM was 112%.

As for `O=C(Nc1cccc(S(=O)(=O)N2CCOCC2)c1)c1cc2ccccc2oc1=O` [CBK268170], the viability at 28.5 h, 10 µM is 107%.

Take `O=C(O)C1C2C=CC(O2)C1C(=O)Nc1ccc(S(=O)(=O)N2CCc3ccccc32)cc1` (stereo not drawn) [CBK268176]: the viability at 28.5 h, 10 µM amounted to 91.1%.

With `Cc1cccc(Cn2cnc(NC(=O)COc3ccc([N+](=O)[O-])c(C)c3)n2)c1` [CBK268177], the viability at 28.5 h, 10 µM came to 118%.

Turning to `CCCc1cc(C(N)=O)c(NC(=O)c2sc3ccccc3c2Cl)s1` [CBK268178], the viability at 28.5 h, 10 µM turned out to be 103%.

On to `COc1cc(NS(=O)(=O)c2ccc(NC(=O)c3ccc(C)o3)cc2)nc(OC)n1` [CBK268182], for which the viability at 28.5 h, 10 µM amounted to 91.6%.

For `Cc1noc(C)c1C(=O)Nc1ccc(S(=O)(=O)NCCc2ccccc2)cc1` [CBK268183], the viability at 28.5 h, 10 µM was found to be 92.8%.

For the molecule `COc1ccc(C(CC(=O)c2ccc(C)cc2)Nc2ccc([N+](=O)[O-])cc2)cc1` (stereo not drawn) [CBK268187], the viability at 28.5 h, 10 µM was determined as 92.2%.

Regarding `N/C(=N\OC(=O)c1ccccc1CCc1ccccc1)c1cccnc1` [CBK268188], the viability at 28.5 h, 10 µM was found to be 91.5%.

As to `O=C(Nc1cc(Br)ccc1O)c1cnn2c(C(F)(F)F)cc(-c3cccs3)nc12` [CBK268190], the viability at 28.5 h, 10 µM stood at 96%.

In the case of `CN(C)S(=O)(=O)N(CC(=O)NCC1CCCO1)c1ccccc1` (stereo not drawn) [CBK268192], the viability at 28.5 h, 10 µM came to 103%.

Consider `Cc1ccc(Cl)cc1NC(=O)c1cc(NC(=O)C2C3C=CC(C3)C2C(=O)O)ccc1N1CCCCC1` (stereo not drawn) [CBK268194], for which the viability at 28.5 h, 10 µM worked out at 85.9%.

With `O=C(NCc1ccccn1)c1cnn2c(C(F)(F)F)cc(-c3cccs3)nc12` [CBK268195], the viability at 28.5 h, 10 µM was determined as 99.9%.

With `O=S(=O)(NCc1nc(-c2ccccc2)no1)c1ccc(F)cc1` [CBK268198], the viability at 28.5 h, 10 µM was determined as 93.3%.

Take `Cc1cc2c(=O)n(Cc3ccco3)c(SCc3nc4ccccc4[nH]3)nc2s1` [CBK268202]: the viability at 28.5 h, 10 µM worked out at 88.2%.

Regarding `O=C(COc1ccc(S(=O)(=O)N2CCCCC2)cc1)Nc1ccc2c(c1)OCCO2` [CBK268205], the viability at 28.5 h, 10 µM came to 102%.

Take `COC(=O)Nc1ncc(CN2CCCCC2)s1` [CBK268208]: the viability at 28.5 h, 10 µM amounted to 111%.

Consider `Fc1ccc(COc2ccc3ccccc3c2CNc2nn[nH]n2)cc1` [CBK268211], for which the viability at 28.5 h, 10 µM was found to be 86.9%.

Take `CCc1ccc(OC)c(S(=O)(=O)N2CCOCC2)c1` [CBK268214]: the viability at 28.5 h, 10 µM is 117%.

Turning to `CC(=O)NCCc1nc2cc(NC(=O)Nc3ccccc3)ccc2n1C` [CBK268216], the viability at 28.5 h, 10 µM came out at 103%.

On to `Cc1ccc(SCc2ccc(C(=O)Nc3ccccc3C(=O)N3CCCC3)cc2)cc1` [CBK268217], for which the viability at 28.5 h, 10 µM is 112%.

For the molecule `COc1ccccc1-c1nn2c(Cn3cnc4ccccc43)nnc2s1` [CBK268218], the viability at 28.5 h, 10 µM came out at 93%.

With `CSc1nc2ccc(S(=O)(=O)NCCOc3ccc(Cl)cc3)cc2s1` [CBK268219], the viability at 28.5 h, 10 µM turned out to be 81.9%.

On to `COc1ccc(S(=O)(=O)N(C)CC(=O)N2CCN(Cc3ccccc3)CC2)cc1C` [CBK268221], for which the viability at 28.5 h, 10 µM is 99.6%.

Regarding `COc1ccc(C)cc1NC(=O)CN(c1ccccc1)S(=O)(=O)c1ccc(F)cc1` [CBK268223], the viability at 28.5 h, 10 µM amounted to 99.1%.

Regarding `CCn1nnnc1NCc1ccc(OCc2ccc(F)cc2Cl)c(OC)c1` [CBK268224], the viability at 28.5 h, 10 µM is 112%.

For the molecule `Cc1ccc(CCNc2c([N+](=O)[O-])nn(-c3ccc4c(c3)OCCO4)[n+]2[O-])cc1` [CBK268225], the viability at 28.5 h, 10 µM came out at 103%.

`Cc1nn(Cc2ccc(F)cc2)c(C)c1NC(=O)c1cnn2c(C(F)(F)F)cc(-c3ccccc3)nc12` [CBK268231]: the viability at 28.5 h, 10 µM is 96.7%.

For the molecule `CC(C)c1ccc(NC(=O)CSc2nnc(CN3CCOCC3)n2C)cc1` [CBK268235], the viability at 28.5 h, 10 µM is 93.7%.

For the molecule `COC(=O)c1ccc2c(=O)n(CCc3ccc(S(N)(=O)=O)cc3)c(=S)[nH]c2c1` [CBK268238], the viability at 28.5 h, 10 µM stood at 91.2%.

For `O=C(CSc1ccc2ccccc2c1)Nc1ccc(Cl)c(C(=O)O)c1` [CBK268239], the viability at 28.5 h, 10 µM turned out to be 103%.

Consider `O=C(O)CCN1C(=O)c2ccc(NC(=O)Cc3cccs3)cc2C1=O` [CBK268240], for which the viability at 28.5 h, 10 µM stood at 95.9%.

As to `CCc1cc(-c2n[nH]c(C(=O)O)c2-c2nc(C)cs2)c(O)cc1O` [CBK268247], the viability at 28.5 h, 10 µM was 99.4%.

On to `CN1CCN(C(=O)COc2ccc(S(=O)(=O)Nc3ccc(Cl)cc3)cc2)CC1` [CBK268248], for which the viability at 28.5 h, 10 µM was 102%.

Turning to `CC(Cc1c[nH]c2ccccc12)NC(=N)NC(=N)N` (stereo not drawn) [CBK268251C], the viability at 28.5 h, 10 µM was 91.7%.

Regarding `COc1cc(NC(=O)COc2cccc3ccccc23)c(C(=O)O)cc1OC` [CBK268253], the viability at 28.5 h, 10 µM was 76.6%.

As to `Cc1cc(C)cc(Nc2c([N+](=O)[O-])nn(-c3cccc(Cl)c3)[n+]2[O-])c1` [CBK268254], the viability at 28.5 h, 10 µM stood at 105%.

For the molecule `CCNS(=O)(=O)c1ccc(CCC(=O)Nc2ccc3c(c2)OCCO3)cc1` [CBK268255], the viability at 28.5 h, 10 µM is 109%.

On to `COc1ccccc1NC(=O)Cn1cc(C(=O)c2cccs2)c2ccccc21` [CBK268256], for which the viability at 28.5 h, 10 µM was 98.6%.

Take `CCNS(=O)(=O)c1ccc(NS(=O)(=O)Cc2ccccc2)cc1` [CBK268257]: the viability at 28.5 h, 10 µM amounted to 100%.

In the case of `Cc1ccc(-c2nnc3sc(-c4cnccn4)nn23)cc1` [CBK268258], the viability at 28.5 h, 10 µM turned out to be 98.9%.

Regarding `Cn1c(CN2CCN(C(=O)Nc3ccccc3)CC2)nc2cc([N+](=O)[O-])ccc21` [CBK268260], the viability at 28.5 h, 10 µM was 91.8%.

For the molecule `c1csc(-c2nn3c(Cn4cnc5ccccc54)nnc3s2)c1` [CBK268262], the viability at 28.5 h, 10 µM was 87.9%.

Turning to `O=S(=O)(Nc1ccc(Cc2ccncc2)cc1)N1CCCC1` [CBK268263], the viability at 28.5 h, 10 µM is 112%.
